According to patent publication US20260242416A1, “ANTIMICROBIAL PEPTIDES” (priority 2023, published 2026):
Where a SMILES comes first, the peptide text is derived from it.

System: E. coli ATCC 25922, Salmonella Enteritidis, S. aureus ATCC 29213
Assay: Broth microdilution, panel result (at least one / all strains), Example 2
Format: cell-based
Design: key to inhibitory activity (asterisk): *Indicates inhibitory activity
Conditions: for inhibitory activity (asterisk): Table 14, against at least one of E. coli ATCC 25922, Salmonella Enteritidis, S. aureus ATCC 29213
Method: The antimicrobial activity of the putative AMPs was determined by a broth microdilution assay as described by the Clinical and Laboratory Standards Institute, with the published adaptations for testing of cationic peptides. Escherichia coli 25922 and Staphylococcus aureus 29213 isolates were purchased from the American Type Culture Collection (ATCC; Manassas, VA, USA). A human clinical isolate of Salmonella enterica serovar Enteritidis was provided by the BC Centre for Disease Control. Bacteria from stocks stored at −80° C. were streaked onto nonselective Columbia blood agar with 5% sheep blood (Oxoid) and incubated overnight at 37° C. Next, 2-4 colonies were streaked onto a new agar plate to ensure uniform health of colonies used in the broth microdilution assay. Isolated colonies were suspended in MHB and the optical density was measured with a spectrophotometer to create an initial inoculum concentration of approximately 1×10^8 cfu/mL. The inoculum was diluted 1:250 to a final concentration of 2-8×10^5 cfu/mL, which was confirmed by performing a Total Viability Count (TVC). The TVC consisted of plating a 1:1000 dilution of the final inoculum on nonselective media and was also used to confirm the health and purity of the inoculum in each trial.
Lyophilized 80 μg peptide aliquots synthesized by GenScript (Piscataway, NJ, USA) were resuspended to 1.28 mg/mL with UltraPure water (Thermo Fisher Scientific, Waltham, MA, USA) and serially diluted in polypropylene 96-well microtiter plates (Greiner Bio-One #650261, Kremsmunster, Austria) from 128 down to 0.5 μg/mL. Two columns per plate were reserved for growth and sterility controls. Inoculum was added to the wells containing the peptide and the growth control. Plates were incubated for 20-24 h at 37° C. The minimum inhibitory concentration (MIC) was determined as the lowest peptide concentration where there was no visible bacterial growth.

Compound	inhibitory activity (asterisk)	spectrum of antimicrobial activity (panel of E. coli, Salmonella Enteritidis, S. aureus, up to 128 μg/mL)
CC[C@H](C)[C@H](NC(=O)CN)C(=O)N[C@@H](Cc1ccc(O)cc1)C(=O)N[C@H](C(=O)NCC(=O)N[C@@H](CCCNC(=N)N)C(=O)N[C@@H](CC(C)C)C(=O)N[C@@H](CC(C)C)C(=O)N1CCC[C@H]1C(=O)N[C@H](C(=O)N[C@@H](Cc1ccc(O)cc1)C(=O)N[C@H](C(=O)N1CCC[C@H]1C(=O)N[C@@H](CCC(N)=O)C(=O)N1CCC[C@H]1C(=O)N[C@@H](CCCNC(=N)N)C(=O)N1CCC[C@H]1C(=O)N1CCC[C@H]1C(=O)N[C@@H](Cc1c[nH]cn1)C(=O)N1CCC[C@H]1C(=O)N[C@@H](CCCNC(=N)N)C(=O)N[C@@H](CC(C)C)C(=O)N[C@@H](CCCNC(=N)N)C(=O)N[C@@H](CCCNC(=N)N)C(=O)O)[C@@H](C)CC)C(C)C)[C@@H](C)O [ApCe1] (H-GIYTGRLLPVYIPQPRPPHPRLRR-OH; N-terminus and C-terminus assumed)	695.* GIYTGRLLPVYIPQPRPPHPRLRR	antimicrobial activity against Gram-negative bacterial species but not Gram-positives
CC[C@H](C)[C@H](NC(=O)CN)C(=O)N[C@@H](CC(C)C)C(=O)N[C@@H](CCCNC(=N)N)C(=O)N[C@@H](CC(C)C)C(=O)N[C@H](C(=O)N[C@H](C(=O)N[C@@H](CCCNC(=N)N)C(=O)N[C@@H](CCCNC(=N)N)C(=O)N[C@@H](Cc1ccccc1)C(=O)N[C@@H](CCCNC(=N)N)C(=O)N[C@@H](Cc1ccccc1)C(=O)N[C@@H](CO)C(=O)N1CCC[C@H]1C(=O)N[C@H](C(=O)N[C@@H](CC(N)=O)C(=O)N[C@@H](CC(C)C)C(=O)N[C@@H](CC(N)=O)C(=O)N[C@@H](CCCNC(=N)N)C(=O)N[C@@H](Cc1ccc(O)cc1)C(=O)N[C@H](C(=O)N[C@H](C(=O)N[C@@H](C)C(=O)N[C@@H](CCCNC(=N)N)C(=O)N[C@@H](CC(C)C)C(=O)N[C@H](C(=O)N[C@@H](CO)C(=O)NCC(=O)N[C@H](C(=O)N1CCC[C@H]1C(=O)O)C(C)C)C(C)C)C(C)C)[C@@H](C)O)[C@@H](C)O)[C@@H](C)O)C(C)C [BoAr6] (H-GILRLVTRRFRFSPTNLNRYTVARLVSGVP-OH; N-terminus and C-terminus assumed)	790.* GILRLVTRRFRFSPTNLNRYTVARLVSGVP	–
CC[C@H](C)[C@H](NC(=O)[C@H](CCCCN)NC(=O)[C@@H](N)CCCNC(=N)N)C(=O)N[C@H](C(=O)N[C@@H](C)C(=O)N[C@H](C(=O)N[C@@H](CO)C(=O)N[C@H](C(=O)N[C@@H](Cc1c[nH]cn1)C(=O)N[C@@H](CCCCN)C(=O)N[C@@H](CC(C)C)C(=O)N[C@@H](CS)C(=O)N[C@@H](CCCNC(=N)N)C(=O)N[C@H](C(=O)N[C@@H](CCCCN)C(=O)N[C@@H](CCCNC(=N)N)C(=O)O)C(C)C)C(C)C)C(C)C)[C@@H](C)CC [BoUs1, RKIIAVSVHKLCRVKR] (H-RKIIAVSVHKLCRVKR-OH; N-terminus and C-terminus assumed)	815.* RKIIAVSVHKLCRVKR	–
CC[C@H](C)[C@H](NC(=O)[C@@H](N)Cc1ccccc1)C(=O)N[C@@H](CCCCN)C(=O)N[C@H](C(=O)N[C@@H](CCC(N)=O)C(=O)N[C@H](C(=O)N[C@@H](CC(C)C)C(=O)N[C@@H](CCCCN)C(=O)N[C@@H](Cc1c[nH]cn1)C(=O)N[C@@H](CC(C)C)C(=O)N[C@H](C(=O)N[C@@H](C)C(=O)NCC(=O)N[C@H](C(=O)N[C@@H](CCCNC(=N)N)C(=O)N[C@H](C(=O)N[C@@H](C)C(=O)N[C@@H](CCCNC(=N)N)C(=O)NCC(=O)N[C@@H](CC(C)C)C(=O)N[C@@H](CC(=O)O)C(=O)N[C@@H](Cc1c[nH]c2ccccc12)C(=O)N[C@@H](CCCCN)C(=O)N[C@@H](Cc1c[nH]c2ccccc12)C(=O)N[C@@H](CCCNC(=N)N)C(=O)O)C(C)C)C(C)C)C(C)C)C(C)C)[C@@H](C)O [CaCa2] (H-FIKTQVLKHLVAGVRVARGLDWKWR-OH; N-terminus and C-terminus assumed)	819.* FIKTQVLKHLVAGVRVARGLDWKWR	–
CC[C@H](C)[C@H](NC(=O)[C@H](CCCCN)NC(=O)[C@H](CS)NC(=O)[C@H](Cc1ccccc1)NC(=O)[C@H](CCCCN)NC(=O)[C@H](CCCNC(=N)N)NC(=O)[C@H](CO)NC(=O)[C@H](Cc1ccc(O)cc1)NC(=O)CNC(=O)[C@H](CS)NC(=O)[C@@H]1CCCN1C(=O)[C@H](C)NC(=O)[C@@H](NC(=O)[C@H](C)NC(=O)[C@H](Cc1ccccc1)NC(=O)[C@H](Cc1ccccc1)NC(=O)[C@H](Cc1ccccc1)NC(=O)[C@H](CCCNC(=N)N)NC(=O)[C@@H](N)CCCNC(=N)N)[C@@H](C)O)C(=O)N[C@H](C(=O)N[C@@H](CCCNC(=N)N)C(=O)N[C@@H](CCCNC(=N)N)C(=O)N[C@@H](CCCCN)C(=O)N[C@@H](CCCNC(=N)N)C(=O)O)[C@@H](C)O [CaCa4] (H-RRFFFATAPCGYSRKFCKITRRKR-OH; N-terminus and C-terminus assumed)	816.* RRFFFATAPCGYSRKFCKITRRKR	–
CC(C)C[C@H](NC(=O)[C@@H](NC(=O)[C@H](Cc1ccccc1)NC(=O)[C@H](C)NC(=O)CN)C(C)C)C(=O)N[C@@H](Cc1c[nH]c2ccccc12)C(=O)NCC(=O)N1CCC[C@H]1C(=O)N[C@H](C(=O)N1CCC[C@H]1C(=O)N[C@@H](CCCNC(=N)N)C(=O)N1CCC[C@H]1C(=O)N[C@@H](CCCNC(=N)N)C(=O)N[C@@H](CCCNC(=N)N)C(=O)N[C@@H](CCCNC(=N)N)C(=O)O)[C@@H](C)O [DiLo1, GAFVLWGPTPRPRRR] (H-GAFVLWGPTPRPRRR-OH; N-terminus and C-terminus assumed)	864.* GAFVLWGPTPRPRRR	–
CC[C@H](C)[C@H](NC(=O)[C@H](C)NC(=O)[C@H](CCCNC(=N)N)NC(=O)[C@@H](N)CCCNC(=N)N)C(=O)N[C@@H](Cc1ccccc1)C(=O)N[C@@H](C)C(=O)N[C@@H](CO)C(=O)N[C@H](C(=O)N[C@@H](CCCNC(=N)N)C(=O)NCC(=O)N[C@@H](Cc1ccc(O)cc1)C(=O)N[C@@H](CC(C)C)C(=O)NCC(=O)N[C@@H](CC(C)C)C(=O)N[C@@H](CCCNC(=N)N)C(=O)N[C@@H](CCCCN)C(=O)N[C@@H](CCCNC(=N)N)C(=O)O)[C@@H](C)CC [MyGu1, RRAIFASIRGYLGLRKR] (H-RRAIFASIRGYLGLRKR-OH; N-terminus and C-terminus assumed)	881.* RRAIFASIRGYLGLRKR	–
CC[C@H](C)[C@H](NC(=O)[C@H](CCCCN)NC(=O)[C@H](CS)NC(=O)[C@H](CCCCN)NC(=O)[C@H](CC(C)C)NC(=O)[C@H](CC(N)=O)NC(=O)[C@H](CC(=O)O)NC(=O)[C@H](CC(C)C)NC(=O)[C@H](CC(C)C)NC(=O)[C@@H](NC(=O)[C@@H](NC(=O)[C@H](C)NC(=O)[C@@H](NC(=O)[C@H](CC(N)=O)NC(=O)[C@H](CCCCN)NC(=O)[C@H](C)NC(=O)[C@@H](NC(=O)[C@H](CC(N)=O)NC(=O)[C@H](CCCCN)NC(=O)[C@H](C)NC(=O)[C@@H](NC(=O)[C@H](CC(=O)O)NC(=O)[C@H](CCSC)NC(=O)[C@H](Cc1ccccc1)NC(=O)CN)[C@@H](C)O)C(C)C)C(C)C)C(C)C)[C@@H](C)O)C(=O)N[C@H](C(=O)N[C@@H](CCCCN)C(=O)N[C@@H](C)C(=O)N[C@@H](CS)C(=O)O)[C@@H](C)O [OdMa13] (H-GFMDTAKNVAKNVAVTLLDNLKCKITKAC-OH; N-terminus and C-terminus assumed)	1095.* GFMDTAKNVAKNVAVTLLDNLKCKITKAC	–
CC[C@H](C)[C@H](NC(=O)CNC(=O)[C@H](CCCNC(=N)N)NC(=O)[C@H](CCCCN)NC(=O)[C@H](CCCCN)NC(=O)[C@H](CCCNC(=N)N)NC(=O)[C@@H]1CCCN1C(=O)[C@@H](NC(=O)[C@H](CCSC)NC(=O)[C@H](CC(C)C)NC(=O)[C@@H](N)CCCCN)[C@@H](C)CC)C(=O)N[C@@H](Cc1ccccc1)C(=O)NCC(=O)NCC(=O)N[C@@H](CC(C)C)C(=O)N[C@@H](CC(C)C)C(=O)N[C@@H](CCCCN)C(=O)N[C@H](C(=O)NCC(=O)N[C@@H](CCCCN)C(=O)N[C@@H](CCCCN)C(=O)N[C@H](C(=O)N[C@@H](C)C(=O)N[C@@H](CS)C(=O)NCC(=O)N[C@@H](CC(C)C)C(=O)N[C@@H](CO)C(=O)NCC(=O)N[C@@H](CC(C)C)C(=O)N[C@@H](CS)C(=O)O)[C@@H](C)CC)C(C)C [OdTo4] (H-KLMIPRKKRGIFGGLLKVGKKIACGLSGLC-OH; N-terminus and C-terminus assumed)	190.* KLMIPRKKRGIFGGLLKVGKKIACGLSGLC	–
CC(C)C[C@H](NC(=O)CN)C(=O)N[C@@H](CC(C)C)C(=O)NCC(=O)N[C@@H](CCCCN)C(=O)N[C@H](C(=O)N[C@@H](CC(C)C)C(=O)NCC(=O)N[C@H](C(=O)NCC(=O)N[C@@H](CCCCN)C(=O)N[C@@H](CCCCN)C(=O)N[C@H](C(=O)N[C@@H](CC(C)C)C(=O)N[C@@H](CS)C(=O)NCC(=O)N[C@H](C(=O)N[C@H](C(=O)NCC(=O)N[C@@H](CCCNC(=N)N)C(=O)N[C@@H](CCC(=O)O)C(=O)N[C@@H](CCCNC(=N)N)C(=O)N[C@@H](CS)C(=O)N[C@@H](CCC(N)=O)C(=O)O)[C@@H](C)O)C(C)C)C(C)C)C(C)C)C(C)C [PeNi5] (H-GLLGKVLGVGKKVLCGVTGRERCQ-OH; N-terminus and C-terminus assumed)	359.* GLLGKVLGVGKKVLCGVTGRERCQ	–
